Data set [1] deals with perforin-dependent cytotoxicity of KHYG-1 NK cells on K562 target cells. Nature of the data set: KHYG-1 cytotoxicity assay (51Cr-labeled K562 target cells). The format is cell-based. Conditions: Homo sapiens; concentration inhibiting 90% of perforin-dependent cytotoxicity; K562 targets, effector/target 2:1, 4 h, RPMI 0.1% BSA; read-out: KHYG-1 IC90. Here is the method:
(Table 1). […] An IC90 was used rather than an IC50 as we anticipated that elevated suppression of perforin activity is likely required to preserve the transplanted bone marrow stem cells in vivo.
The inhibition of the cytotoxic activity of KHYG-1 NK cells on K562 target cells was determined as described previously.[14] Briefly, compounds were added to KHYG-1 cells at 6–7 concentrations ranging from 20 μM to 312.5 nM in 2-fold dilutions in RPMI medium (Thermo Fisher Scientific, Waltham, MA) supplemented with 0.1% bovine serum albumin (BSA; Sigma-Aldrich, St. Louis, MO) for 20 min. ^51Cr-labeled K562 leukemia target cells were added to KHYG-1 cells at an effector/target ratio of 2:1 and incubated at 37 °C for 4 h. ^51Cr release was assayed using a Harvesting Press (Skatron Instruments, Lier, Norway), and radioactivity was estimated on a Wallac Wizard 1470 Automatic γ counter (Turku, Finland). The IC90 values were calculated by fitting a four-parameter logistic sigmoidal dose–response curve to the data using Prism version 8 (GraphPad, San Diego, CA). Each IC90 value represents the mean of at least three independent experiments, where six to seven concentrations were tested in triplicate for each compound.

Data set [2] is described as follows: Plasma protein binding by equilibrium dialysis. Type of data set: in vitro ADME, mouse. Conditions: CD1, pH 7.4; mouse plasma, 10 μM, equilibrium dialysis. On the procedure:
The plasma protein binding of the compounds was determined by equilibrium dialysis (12–14 kDa cutoff membrane). […] The dialysis unit was covered with an adhesive sealing film to prevent evaporation of the contents and placed in an incubator (Innova-42, New Brunswick Scientific) maintained at 37 °C with gentle mixing (80 rpm) for 6 h. Next, a 10 μL sample was aspirated from the plasma side and mixed with 90 μL of fresh PBS, whereas a 90 μL sample from the buffer side was removed and combined with 10 μL of drug-free plasma to ensure uniform matrix composition. Ice-cold acetonitrile (300 μL; Merck Millipore, Burlington, MA) containing internal standard (a BZS analogue of similar chemical structure) was added to each sample to precipitate protein and was vortexed for 2 min and centrifuged for 5 min at 13 000 rpm. The supernatant was diluted with 0.01% formic acid in ultrapure water (Milli-Q) (1:1) and quantitated by liquid chromatography–tandem mass spectrometry (LC-MS/MS). Each compound was tested in triplicate alongside control compounds known to have low (e.g., lidocaine) and high (e.g., amitriptyline) plasma protein binding. For media binding studies, the same assay was used, but RPMI with 0.1% BSA was used in place of CD1 mouse plasma.
(Equilibrium dialysis compares concentrations on both sides of a semipermeable membrane.)

The next data set concerns the target T1, perforin (Mus musculus, UniProt P10820).
T1 construct: endogenous in cells; host or cells: recipient cytotoxic lymphocytes (NK/CTL) of wild-type C57BL/6 mice, in vivo
T1 sequence (P10820 21-554): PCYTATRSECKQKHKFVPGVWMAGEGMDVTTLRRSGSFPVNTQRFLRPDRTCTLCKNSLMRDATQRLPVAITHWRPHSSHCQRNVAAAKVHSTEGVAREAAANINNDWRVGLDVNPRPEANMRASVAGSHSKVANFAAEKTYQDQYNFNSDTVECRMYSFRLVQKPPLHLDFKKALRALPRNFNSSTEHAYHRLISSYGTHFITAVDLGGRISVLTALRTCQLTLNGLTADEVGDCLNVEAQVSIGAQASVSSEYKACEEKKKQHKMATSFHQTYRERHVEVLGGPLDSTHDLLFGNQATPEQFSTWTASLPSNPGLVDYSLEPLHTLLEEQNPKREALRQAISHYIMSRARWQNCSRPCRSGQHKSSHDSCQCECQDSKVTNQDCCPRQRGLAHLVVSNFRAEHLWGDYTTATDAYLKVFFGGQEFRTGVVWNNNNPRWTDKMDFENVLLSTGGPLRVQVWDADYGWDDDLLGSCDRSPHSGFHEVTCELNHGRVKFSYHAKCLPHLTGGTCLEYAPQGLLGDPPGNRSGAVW
Nature of the data set: In vivo perforin inhibition (allogeneic bone marrow transfer assay). Conditions: for % perforin inhibition, spleen: 24 h after transplant. Here is the method:
This model was selected as a surrogate assay for graft rejection during allogeneic bone marrow/stem cell transplantation to enable rapid testing of perforin inhibition in vivo. Mice were transplanted with a mixture of equal numbers of allogeneic immunologically mismatched and syngeneic immunologically matched bone marrow. […] Allogeneic cell survival in spleen and peripheral blood was determined 24 h after transplant, using C57BL/6 perforin-deficient mice (100% perforin inhibition) and untreated C57BL/6 mice (0% perforin inhibition) as controls.
Compounds were tested for in vivo efficacy as described previously.[14] Age- (8–12 weeks) and sex-matched wild-type (H-2D^b, CD45.2^+) or perforin-deficient C57BL/6 mice (C57BL/6-Prf1^tm1Sdz/J; H-2D^b, CD45.2^+) received 12 ×10^6 bone marrow cells from both allogeneic BALB/c (H-2D^d) MHC-mismatched and syngeneic C57BL/6 (H-2D^b) MHC-matched mice (24 × 10^6 cells total). The wild-type recipient mice were treated with perforin inhibitor compounds by intraperitoneal injection in 20% hydroxypropyl-β-cyclodextrin vehicle (10 mL/kg), or with vehicle alone; perforin-deficient mice remained untreated. The mice were euthanized 24 h after bone marrow transfer for peripheral blood mononuclear cell (PBMC) and spleen collection.
Throughout the study, we utilized two strategies to distinguish between recipient, donor allogeneic, and donor syngeneic cells based on either fluorescent labeling prior to transplant or congenic marker expression (CD45.1/CD45.2). In the fluorescent dye approach, allogeneic wild-type BALB/c (H-2D^d, CD45.2^+) bone marrow was labeled with 1 μM carboxyfluorescein succinimidyl ester (CFSE) prior to mixing with syngeneic bone marrow from C57BL/6 congenic mice (CD45.1^+). Twenty-four hours after cell transfer, the harvested cells were stained with anti-CD45.1-phycoerythrin and anti-TER119-allophycocyanin monoclonal antibodies (BioLegend, San Diego, CA). TER119 was used for erythroid exclusion prior to the identification of allogeneic (CFSE^+) and syngeneic (CD45.1^+) donor cells. Using a second purely congenic marker approach, allogeneic BALB/c congenic (H-2D^d, CD45.1^+) bone marrow was mixed with syngeneic C57BL/6 double congenic (H-2D^b, CD45.1^+CD45.2^+) bone marrow prior to transfer. The harvested cells were stained with anti-CD45.1-phycoerythrin, anti-CD45.2-phycoerythrin-cyanine-7, and anti-TER119-allophycocyanin monoclonal antibodies (BioLegend, San Diego, CA). TER119 was used for erythroid exclusion, prior to identification of allogeneic donor (CD45.1^+), syngeneic donor (CD45.1^+ CD45.2^+), and recipient (CD45.2^+) cells. Dead cells were excluded using 7-aminoactinomycin D. Samples were acquired with an LSR Fortessa (BD Biosciences) and analyzed using FlowJo version 9 software (BD Biosciences). Prism version 9 (GraphPad) was used to calculate CTL indices as the percentage survival of syngeneic donor cells divided by the percentage survival of allogeneic donor cells. […] In vivo perforin inhibition animal experiments were approved by the Animal Ethics Committee of the QIMR Berghofer Medical Research Institute.

The subject of a further data set is recombinant perforin. Also on record: method as in PMID 28582670, PMID 28110869. Conditions: lytic activity of recombinant perforin against Jurkat T leukemia cells; cited from earlier work.
Details of data set [3]: method as in PMID 28582670; AUC: concentration or dose not given beside the values. Conditions: mouse plasma; cited from earlier work.
Data set [4] in a line: Splenocyte cellularity and tolerability in the bone marrow transfer assay. Type of data set: in vivo. Here is the method:
For the determination of splenic cell counts, mouse spleens were harvested and the cells dispersed in media by gentle teasing and then centrifuged at 500g. Cell pellets were resuspended in media and total spleen cell counts were performed manually using a standard hemocytometer and light microscopy. […] Peripheral blood cell counts and spleen white blood cell counts were determined on a Beckman Coulter Ac.T diff hematology analyzer.

Setting [5] is: 100 mg/kg qd x 4 (0, 24, 48 h prior to and 18 h after transfer).
[6] abbreviates: all dose levels (100, 75 and 50% of MTD), qd x 4.

By IC90 is commonly meant the concentration at which the effect reaches the 90% level. Usually fraction unbound stands for the share of the substance not bound to proteins or other matrix. What is called IC50 is the concentration needed to halve the response being measured. The term AUC denotes the area under the concentration-time curve, a measure of exposure. By Cmax is commonly meant the highest concentration seen after dosing. Turning to `CN1Cc2cc(-c3ccc(-c4cnc(F)c(NS(=O)(=O)c5ccc(F)cc5F)c4)s3)ccc2C1=O` [Compound 8, 2,4-difluoro-N-{2-fluoro-5-[5-(2-methyl-1-oxo-2,3-dihydro-1H-isoindol-5-yl)-2-thienyl]-3-pyridinyl}benzenesulfonamide], the IC90 in data set [1] was 3.54 ± 0.65 µM. Besides, the fraction unbound at 6 h, 10 μM in data set [2] is 0.0003. On perforin (160 mg/kg qd x 4 (0, 24, 48 h prior to and 18 h after transfer)), the “% perforin inhibition, spleen” value was 39.14%. In the data set with recombinant perforin, the IC50 was 1.99 µM. In data set [3], the AUC is 2885 µM·h and the Cmax was 236 µM.
Turning to `CN1Cc2cc(-c3ccc(-c4cncc(NS(=O)(=O)c5ccc([N+](=O)[O-])cc5)c4)s3)ccc2C1=O` [Compound 4, N-{5-[5-(2-methyl-1-oxo-2,3-dihydro-1H-isoindol-5-yl)-2-thienyl]-3-pyridinyl}-4-nitrobenzenesulfonamide], the IC90 in data set [1] came out at 19.9 ± 3.7 µM. This compound also had a fraction unbound at 6 h, 10 μM in data set [2] of 0.0031. Moreover, the “% perforin inhibition, spleen” value on perforin (setting [5]) is listed as 80.53%. The IC50 in the data set on recombinant perforin was 3.13 µM. Also, in data set [3], the AUC was 383 µM·h and the Cmax was 64.4 µM.
With `CN1Cc2cc(-c3ccc(-c4cncc(NS(=O)(=O)c5ccc(F)cc5F)c4)s3)ccc2C1=O` [Compound 3, 2,4-difluoro-N-{5-[5-(2-methyl-1-oxo-2,3-dihydro-1H-isoindol-5-yl)-2-thienyl]-3-pyridinyl}benzenesulfonamide], the IC90 in data set [1] is 16 ± 3.6 µM. Moreover, the “% perforin inhibition, spleen” value at perforin (60 mg/kg qd x 4 (0, 24, 48 h prior to and 18 h after transfer)) is 7%. Also, the “% perforin inhibition, spleen” value on perforin (90 mg/kg qd x 4 (0, 24, 48 h prior to and 18 h after transfer)) is 10%. For the same compound, in data set [4] (setting [6]), the “reductions in splenocyte number” value is reported as “only minor reductions” and the tolerability result is “well tolerated”. Further, in data set [3], the AUC is 220 µM·h and the Cmax was 9.8 µM.
Take `CN1Cc2cc(-c3ccc(-c4cncc(NS(=O)(=O)c5ccc(C#N)cc5)c4)s3)ccc2C1=O` [Compound 6, 4-cyano-N-{5-[5-(2-methyl-1-oxo-2,3-dihydro-1H-isoindol-5-yl)-2-thienyl]-3-pyridinyl}benzenesulfonamide]: the IC90 in data set [1] was 30.9 ± 10.5 µM. This compound also showed a fraction unbound at 6 h, 10 μM in data set [2] of 0.0023. In addition, the “% perforin inhibition, spleen” value at perforin (setting [5]) came to 22.70%. Besides, the IC50 with recombinant perforin was 5.17 µM. In addition, in data set [3], the AUC was 642 µM·h and the Cmax is 87.3 µM.
Take `CN1Cc2cc(-c3ccc(-c4cnc(Cl)c(NS(=O)(=O)c5ccc(F)cc5F)c4)s3)ccc2C1=O` [Compound 9, N-{2-chloro-5-[5-(2-methyl-1-oxo-2,3-dihydro-1H-isoindol-5-yl)-2-thienyl]-3-pyridinyl}-2,4-difluorobenzenesulfonamide]: the IC90 in data set [1] stood at 1.86 ± 0.44 µM. For the same compound, in data set [2], the fraction unbound at 6 h, 10 μM is 0.0002. For the same compound, at perforin (120 mg/kg qd x 4 (0, 24, 48 h prior to and 18 h after transfer)), the “% perforin inhibition, spleen” value is 61.28%. The “increase in allogeneic bone marrow survival in the spleen, % of that seen in perforin-deficient mice” value at perforin (dose at or near the MTD, 0, 24, 48 h prior to and 18 h after cell transfer) is reported as 61%. Also, the “reduction in splenocyte cellularity” value in data set [4] (dose at or near MTD, qd x 4, after allogeneic bone marrow transplantation) is “much higher”. Further, the IC50 with recombinant perforin was 1.03 µM. Also, in data set [3], the AUC is 2364 µM·h and the Cmax was 149 µM.
Regarding `CN1Cc2cc(-c3ccc(-c4cncc(NS(=O)(=O)c5c(F)cc(F)cc5F)c4)s3)ccc2C1=O` [Compound 5, 2,4,6-trifluoro-N-{5-[5-(2-methyl-1-oxo-2,3-dihydro-1H-isoindol-5-yl)-2-thienyl]-3-pyridinyl}benzenesulfonamide], the IC90 in data set [1] amounted to 10.1 ± 1.8 µM. This compound showed a fraction unbound at 6 h, 10 μM in data set [2] of 0.0048. Further, at perforin (setting [5]), the “% perforin inhibition, spleen” value was found to be 14.88%. Further, in the data set on recombinant perforin, the IC50 was 1.76 µM. In data set [3], the AUC is 1019 µM·h and the Cmax was 124 µM.

The record behind these values is publication PMC9194936, “Preclinical Activity and Pharmacokinetic/Pharmacodynamic Relationship for a Series of Novel Benzenesulfonamide Perforin Inhibitors” (ACS Pharmacology & Translational Science, 2022).
